Columns and labels:
Format in all cases: cell-based
[1] = test system: Jurkat human leukemia T cells; assay: Cell cycle stage in Jurkat cells (propidium iodide flow cytometry); conditions: Jurkat, 24 h, 100 μg/ml
Procedure: Cell cycle stage was determined using a […]™ PLUS DNA commercial kit (Becton Dickinson). Briefly, nuclei from cells were obtained by dissolving the cell membrane in a nonionic detergent, eliminating the cell cytoskeleton and nuclear proteins with trypsin, digesting the cellular RNA with RNase and stabilizing the nuclear chromatin with spermine. Propidium iodide was added to the cell nuclei and their fluorescence was analyzed in a flow cytometer equipped with electronic doublet discrimination capability (FACSCalibur, Becton Dickinson, San Jose, Calif.). Accumulation of cells in G0/G1, early S (SE), mid S (SM), late S (SL) or G2/M phases of the cell cycle was analyzed using MODFIT LT software (Verity Software House Inc., Topsham, Mass.).
Exponentially growing Jurkat human leukemia T cells (Table 28) and MCF-7 human breast cancer cells (5×10^5 cells/ml) (Table 29) were incubated for 24 h with 2, 6, 15, 18, 27 and 45 base sequences containing A, C, G and T. The cells were collected and centrifuged and cell cycle stage was determined.
Jurkat human cell leukemia T cells (1×10^6 cells/ml) were incubated for 24 h with 6 base GT SEQ ID NO:25, conplementary 6 base AC SEQ ID NO:79 and 6 base GT SEQ ID NO:25+6 base AC SEQ ID NO:79. GT SEQ ID NO:25 and AC SEQ ID NO:79 were hybridized by mixing the oligonucleotides (1:1) and heating for 10 minutes at 65° C. As controls, GT SEQ ID NO:25 and AC SEQ ID NO:79 were heated for 10 minutes at 65° C. (Table 30).

[2] = test system: Jurkat human leukemia T cells; assay: Inhibition of Jurkat human leukemia T cell proliferation (MTT reduction); conditions: for % INHIBITION of Jurkat human leukemia T cell proliferation: 100 μg/ml sequence, 48 h, 2.5×10^5 cells/ml; for % INHIBITION of Jurkat proliferation at suboptimal concentration: 5.0 μg/ml of each 6 base sequence, alone or two together
Procedure: Cells were seeded in 6 (1 ml/well), 24 (0.5 ml/well) or 96 (0.1 ml/well) well flat-bottom microplates and were maintained at 37° C. in a 5% CO2 atmosphere. Unless stated otherwise, 2.5×10^5 cells/ml were incubated with 0 μg/ml (control) and 100 μg/ml (treated) of 2 to 45 base sequences containing A, C, G and T for 48 h.
MTT was measured at a wavelength of 570 nm using a multiplate spectrophotometer reader (ELX800, Bio-TEK Instruments Inc., Winooski, Vt.).
Jurkat human leukemia T cells are an atypical multi-drug resistant human suspension tumor cell model.

[3] = test system: THP-1 human acute monocytic leukemia cells; assay: Cytokine production by THP-1 cells (ELISA); conditions: THP-1, 1×10^6 cells, 100 μg/ml, 48 h; for ↑ IL-12 (fold increase treated vs control cells): p70 complex and free p40
Procedure: (§1) Unless stated otherwise, 1×10^6 cells were incubated with 100 μg/ml of each of the sequences tested for 48 h at 37° C. in 5% CO2. Production of cytokines IL-6, IL-10, IL-12, IL-1beta and TNF-alpha was determined in pg/ml in 100 μl of culture supernatant using the appropriate commercial ELISA (BioSource, Camarillo Calif.). The IL-12 ELISA measures both IL-12 p70 complex and free p40 subunit. Results are expressed as the “fold” (×) increase in cytokine production by treated cells compared to control cells.
THP-1 human acute monocytic leukemia cells were incubated with 2, 3, 6, 9, 12, 14, 15 and 18 base GT sequences and production of the cyotkine IL-6 was determined (Table 35).
THP-1 human acute monocytic leukemia cells were incubated with 6 base GT, AG, CG, GG, AGT and CGT sequences and production of the cytokines IL-12 and IL-6 was determined (Table 36).
THP-1 human acute monocytic leukemia cells were incubated with 6 base GT sequences, having either an oxygen (phosphodiester) or a sulfur (phosphorothioate) as the nonbridging atom on the phosphate groups and production of the cytokine IL-12 was determined (Table 39).
THP-1 human acute monocytic leukemia cells were incubated with 6 base GT SEQ ID NO:25, having either an oxygen (phosphodiester) or a sulfur (phosphorothioate) as the nonbridging atom on the phosphate groups and production of the cytokine IL-12 was determined (Table 40).

rhesus monkey PBMCs = assay: Cytokine production by rhesus monkey PBMC (ELISA); conditions: PBMC of 4 healthy rhesus monkeys, 100 μg/ml, 48 h
Procedure: as §1
PBMCs were isolated from 4 healthy rhesus monkeys as in Example 35. PBMCs were incubated with 6 base GT, AGT, CGT, AG, CG ands GG sequences and production of the cytokines IL-6, IL-12 and TNF-alpha was determined (Table 42).

[4] = test system: human peripheral blood mononuclear cells; assay: Cytokine production by human PBMC (ELISA); conditions: PBMC of 7 healthy humans, 100 μg/ml, 48 h
Procedure: as §1
Peripheral blood mononuclear cells (hereinafter, “PBMCs”) were isolated from 7 healthy humans by Ficoll-Hypaque (Amersham Pharmacia Biotech, Baie d'Urfée, Québec, Canada) by density gradient centrifugation of whole blood. PBMCs were incubated with 6 base GT, AGT, CGT, AG, CG and GG sequences and production of the cytokines IL-1beta, IL-6, IL-10 and IL-12 were determined.

chimpanzee PBMCs = assay: Cytokine production by chimpanzee PBMC (ELISA); conditions: PBMC of 4 healthy chimpanzees, 100 μg/ml, 48 h
Procedure: as §1
PBMCs were isolated from 4 healthy chimpanzees as in Example 35. Chimpanzee PBMCs were incubated with 6 base GT, AGT, CGT, AG, CG and GG sequences and production of the cytokines IL-10, IL-12 and TNF-alpha was determined (Table 41).

Row | Sequence | % INHIBITION of Jurkat human leukemia T cell proliferation [2] | ↑ IL-6 (fold increase treated vs control cells) [3] | ↑ IL-12 (fold increase treated vs control cells) [3] | IL-1 beta fold increase: mean +/− SD [4] | IL-6 fold increase: mean +/− SD [4] | IL-10 fold increase: mean +/− SD [4] | IL-12 fold increase: mean +/− SD [4] | also measured
1 | AAAGAGGGGCATGACCCGGTGCGGGGGTTCTTGCACTCGGCATAG (unmodified DNA) [BCG A-1, reference compound] | 6% | 2.6x | 1.9x | – | – | – | – | % of cells in phase: G0/G1 [1]: 19.8%; % of cells in phase: G2/M [1]: 12.0%; % of cells in phase: SE [1]: 31.7%; % of cells in phase: SL [1]: 14.0%; % of cells in phase: SM [1]: 22.5%; Arrest (cell cycle) [1]: Mid SM
2 | AGGTGA [SEQ ID NO:31] | 10% | 4.9x | 1.9x | – | – | – | – | % of cells in phase: G0/G1 [1]: 35.2%; % of cells in phase: G2/M [1]: 17.1%; % of cells in phase: SE [1]: 29.1%; % of cells in phase: SL [1]: 8.2%; % of cells in phase: SM [1]: 10.4%; Arrest (cell cycle) [1]: Mid SE
3 | ATGTAT (unmodified DNA) [SEQ ID NO:30] | 16% | 9.8x | 4.8x | 1.1 +/− 0.2 fold increase | 4.6 +/− 4.4 fold increase | 1.0 +/− 0.1 fold increase | 1.3 +/− 0.2 fold increase | IL-10 fold increase: mean +/− SD (rhesus monkey PBMCs): 1.9 +/− 1.4 fold increase; IL-12 fold increase: mean +/− SD (rhesus monkey PBMCs): 6.0 +/− 1.9 fold increase; TNF-alpha fold increase: mean +/− SD (rhesus monkey PBMCs): 6.9 +/− 4.7 fold increase; IL-10 fold increase: mean +/− SD (chimpanzee PBMCs): 1.4 +/− 0.4 fold increase; IL-12 fold increase: mean +/− SD (chimpanzee PBMCs): 10.7 +/− 7.0 fold increase; TNF-alpha fold increase: mean +/− SD (chimpanzee PBMCs): 5.9 +/− 3.3 fold increase
4 | CTGTCT [SEQ ID NO:36] | 19% | 15.9x | 2.0x | 1.2 +/− 0.3 fold increase | 5.3 +/− 3.6 fold increase | 1.0 +/− 0.1 fold increase | 1.2 +/− 0.3 fold increase | IL-10 fold increase: mean +/− SD (rhesus monkey PBMCs): 1.0 +/− 0.1 fold increase; IL-12 fold increase: mean +/− SD (rhesus monkey PBMCs): 10.7 +/− 4.6 fold increase; TNF-alpha fold increase: mean +/− SD (rhesus monkey PBMCs): 15.3 +/− 3.6 fold increase; IL-10 fold increase: mean +/− SD (chimpanzee PBMCs): 3.0 +/− 2.1 fold increase; IL-12 fold increase: mean +/− SD (chimpanzee PBMCs): 13.4 +/− 8.9 fold increase; TNF-alpha fold increase: mean +/− SD (chimpanzee PBMCs): 12.4 +/− 6.3 fold increase
5 | GCCGAGAAGGTGCGCAACCTGCCGGCTGGCCACGGACTGAACGCT (unmodified DNA) [BCG A-7, reference compound] | 4% | – | 0.5x | – | – | – | – | –
6 | GGGTCC [SEQ ID NO:35] | 20% | 21.3x | 1.9x | – | – | – | – | –
7 | GGGTCT [SEQ ID NO:33] | 15% | 3.1x | 1.2x | – | – | – | – | –
8 | GGGTTT [SEQ ID NO:40] | 31% | 14.0x | −1.2x | – | – | – | – | –
9 | GGTTGG [SEQ ID NO:41] | 43% | 16.0x | 3.3x | 3.2 +/− 3.0 fold increase | 7.8 +/− 12.8 fold increase | 1.0 +/− 0.1 fold increase | 4.9 +/− 8.6 fold increase | IL-10 fold increase: mean +/− SD (rhesus monkey PBMCs): 1.9 +/− 1.5 fold increase; IL-12 fold increase: mean +/− SD (rhesus monkey PBMCs): 11.5 +/− 5.9 fold increase; TNF-alpha fold increase: mean +/− SD (rhesus monkey PBMCs): 14.1 +/− 8.2 fold increase; % INHIBITION of Jurkat proliferation at suboptimal concentration [2]: 4%; IL-10 fold increase: mean +/− SD (chimpanzee PBMCs): 9.1 +/− 7.7 fold increase; IL-12 fold increase: mean +/− SD (chimpanzee PBMCs): 15.3 +/− 10.0 fold increase; TNF-alpha fold increase: mean +/− SD (chimpanzee PBMCs): 14.1 +/− 7.3 fold increase
10 | GTGTGTGTG (chemistry not given here) [SEQ ID NO:12] | 47% | 5.4x | – | – | – | – | – | –
11 | GTGTGTGTGTGT [SEQ ID NO:14] | 51% | 1.3x | – | 1.1 +/− 0.2 fold increase | 2.0 +/− 1.5 fold increase | 1.0 +/− 0.1 fold increase | 2.0 +/− 1.1 fold increase | –
12 | GTGTGTGTGTGTGTG (unmodified DNA) [SEQ ID NO:16] | 58% | 2.6x | – | – | – | – | – | –
13 | TCGTTC [SEQ ID NO:37] | 20% | 12.9x | 2.2x | 1.2 +/− 0.4 fold increase | 7.5 +/− 9.8 fold increase | 1.0 +/− 0.1 fold increase | 1.4 +/− 1.1 fold increase | IL-10 fold increase: mean +/− SD (rhesus monkey PBMCs): 1.1 +/− 0.2 fold increase; IL-12 fold increase: mean +/− SD (rhesus monkey PBMCs): 10.0 +/− 3.8 fold increase; TNF-alpha fold increase: mean +/− SD (rhesus monkey PBMCs): 14.7 +/− 3.1 fold increase; IL-10 fold increase: mean +/− SD (chimpanzee PBMCs): 3.4 +/− 2.6 fold increase; IL-12 fold increase: mean +/− SD (chimpanzee PBMCs): 14.1 +/− 10.0 fold increase; TNF-alpha fold increase: mean +/− SD (chimpanzee PBMCs): 11.4 +/− 6.4 fold increase
14 | TGTGTGTGT (unmodified DNA) [SEQ ID NO:11] | 45% | 5.4x | – | – | – | – | – | –
15 | TGTGTGTGTGTG [SEQ ID NO:13] | 49% | 5.7x | – | 2.4 +/− 1.9 fold increase | 12.1 +/− 6.5 fold increase | 1.2 +/− 0.4 fold increase | 4.4 +/− 5.3 fold increase | –
16 | TGTGTGTGTGTGTG (chemistry not given here) [SEQ ID NO:15] | 47% | 1.0x | – | – | – | – | – | proliferation, cell cycle arrest and apoptosis of Jurkat T cells (summary in words) ([2]; M. phlei murA derived sequences): did not inhibit proliferation of, induce cell cycle arrest in or induce apoptosis of Jurkat T cells
17 | TTGTGG [SEQ ID NO:39] | 35% | 6.6x | 0.0x | – | – | – | – | % INHIBITION of Jurkat proliferation at suboptimal concentration [2]: 4%
